Like-named read-outs stand apart in the source and are kept apart here.
How the values were obtained:
[1] = molecular target: T1, human cannabinoid receptor type 2 (Homo sapiens, UniProt P34972); assay: Human CB2 Radioligand Binding Assay; conditions: membranes from stably transfected CHO CB2 cells
T1 construct: expressed in transfected cells; membrane preparation
In short: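 Test compounds (10 uM final, or dose-response) competed with [3H]CP-55,940, used at the Kd determined per membrane lot, for binding to stable human CB2-CHO membranes over 90 min at 30° C in pH 7.4 Tris/EGTA/MgCl2/BSA buffer. GF/C filtration then scintillation counting; 100 nM CP-55,940 defined 100% efficacy.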

[2] = molecular target: T2, human cannabinoid receptor type 1 (Homo sapiens, UniProt P21554); assay: Human CB1 Radioligand Binding Assay (basis of selectivity, CB2 vs. CB1); conditions: CB1: HEK 293 EBNA cells expressing human CB1; CB2: CHO CB2 membranes
T2 construct: purchased Perkin Elmer RBHCB1M; host or cells: HEK 293 EBNA cells
T2 sequence (P21554 whole entry): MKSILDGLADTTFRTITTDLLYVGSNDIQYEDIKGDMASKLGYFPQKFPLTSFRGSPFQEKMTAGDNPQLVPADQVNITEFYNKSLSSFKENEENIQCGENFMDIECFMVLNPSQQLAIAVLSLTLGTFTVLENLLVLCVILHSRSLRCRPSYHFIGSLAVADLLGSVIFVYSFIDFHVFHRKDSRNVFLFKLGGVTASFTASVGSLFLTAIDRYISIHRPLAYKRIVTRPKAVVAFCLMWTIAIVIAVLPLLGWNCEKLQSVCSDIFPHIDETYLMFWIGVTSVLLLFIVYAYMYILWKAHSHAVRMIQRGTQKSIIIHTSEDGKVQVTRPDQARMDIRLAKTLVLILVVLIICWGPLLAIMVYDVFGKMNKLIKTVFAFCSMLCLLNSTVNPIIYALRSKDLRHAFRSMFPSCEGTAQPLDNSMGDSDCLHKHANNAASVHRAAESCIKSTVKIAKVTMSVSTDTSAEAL
Experimental: 2. Human CB1 Radioligand Binding Assay
The incubation buffer was composed of 50 mM Tris-HCl pH 7.4, 2.5 mM EDTA, 5 mM MgCl2, 5.0 mg/ml fatty acid free BSA and the wash buffer was composed of 50 mM Tris-HCl pH 7.4, 2.5 mM EDTA, 5 mM MgCl2, 0.5 mg/ml fatty acid free BSA.

[3] = competition with [3H] CP-55,940, read-out: CB2 Ligand Binding Asssay EC50

T1 sequence (P34972 whole entry): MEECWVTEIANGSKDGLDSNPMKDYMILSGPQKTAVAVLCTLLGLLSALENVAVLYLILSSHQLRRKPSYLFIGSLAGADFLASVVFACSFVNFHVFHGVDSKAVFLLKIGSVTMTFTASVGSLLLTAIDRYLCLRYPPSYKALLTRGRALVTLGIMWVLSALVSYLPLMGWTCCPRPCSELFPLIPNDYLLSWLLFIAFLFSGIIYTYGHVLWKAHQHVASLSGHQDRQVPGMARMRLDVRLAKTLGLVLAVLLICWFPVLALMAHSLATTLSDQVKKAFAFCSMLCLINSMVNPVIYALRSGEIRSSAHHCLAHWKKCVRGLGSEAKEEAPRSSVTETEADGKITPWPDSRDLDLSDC

Clc1nccc(N2CCN(c3nc(-c4ccccc4Cl)nc4ccccc34)CC2)n1 [Example 197, 2-(2-Chlorophenyl)-4-(4-(2-chloropyrimidin-4-yl)piperazin-1-yl)quinazoline]
EC50 [1, 3]: < 1000 nM
Selectivity, CB2 vs. CB1 [2]: + (+ indicates > 10−fold)

Clc1ccnc(N2CCN(c3nc(-c4ccccc4Cl)nc4ccccc34)CC2)n1 [Example 198]
EC50 [1, 3]: > 1000 nM
Selectivity, CB2 vs. CB1 [2]: − (− indicates ≦ 10−fold)

CC(=O)N1CCN(c2nc(-c3ccc(Cl)cc3)nc3ccccc23)CC1 [Example 199, 1-(4-(2-(4-Chlorophenyl)quinazolin-4-yl)piperazin-1-yl)ethanone]
EC50 [1, 3]: > 1000 nM
Selectivity, CB2 vs. CB1 [2]: − (− indicates ≦ 10−fold)

CCOC(=O)N1CCN(c2nc(-c3ccc(Cl)cc3)nc3ccccc23)CC1 [Example 200, Ethyl 4-(2-(4-chlorophenyl)quinazolin-4-yl)piperazine-1-carboxylate]
EC50 [1, 3]: > 1000 nM
Selectivity, CB2 vs. CB1 [2]: − (− indicates ≦ 10−fold)

CC(=O)N1CCN(c2nc(-c3ccc(C(C)(C)C)cc3)nc3ccccc23)CC1 [Example 201, 1-(4-(2-(4-tert-Butylphenyl)quinazolin-4-yl)piperazin-1-yl)ethanone]
EC50 [1, 3]: < 1000 nM
Selectivity, CB2 vs. CB1 [2]: + (+ indicates > 10−fold)

CC(=O)N1CCN(c2nc(-c3ccc(Cl)cc3Cl)nc3ccccc23)CC1 [Example 202, 1-(4-(2-(2,4-Dichlorophenyl)quinazolin-4-yl)piperazin-1-yl)ethanone]
EC50 [1, 3]: < 1000 nM
Selectivity, CB2 vs. CB1 [2]: − (− indicates ≦ 10−fold)

CCOC(=O)N1CCN(c2nc(-c3ccc(Cl)cc3Cl)nc3ccccc23)CC1 [Example 203, Ethyl 4-(2-(2,4-dichlorophenyl)quinazolin-4-yl)piperazine-1-carboxylate]
EC50 [1, 3]: > 1000 nM
Selectivity, CB2 vs. CB1 [2]: − (− indicates ≦ 10−fold)

FC(F)(F)Oc1ccc2nc(-c3ccccc3Cl)nc(N3CCSCC3)c2c1 [Example 204, 4-(2-(2-Chlorophenyl)-6-(trifluoromethoxy)quinazolin-4-yl)thiomorpholine]
EC50 [1, 3]: < 1000 nM
Selectivity, CB2 vs. CB1 [2]: − (− indicates ≦ 10−fold)

Clc1ccc2nc(-c3ccccc3Cl)nc(N3CCCC3)c2c1 [Example 205, 6-Chloro-2-(2-chlorophenyl)-4-(pyrrolidin-1-yl)quinazoline]
EC50 [1, 3]: < 1000 nM
Selectivity, CB2 vs. CB1 [2]: + (+ indicates > 10−fold)

CCOC(=O)N1CCN(c2nc(-c3ccccc3Cl)nc3ccc(Cl)cc23)CC1 [Example 206, Ethyl 4-(6-chloro-2-(2-chlorophenyl)quinazolin-4-yl)piperazine-1-carboxylate]
EC50 [1, 3]: > 1000 nM
Selectivity, CB2 vs. CB1 [2]: − (− indicates ≦ 10−fold)

Clc1ccc2nc(-c3ccccc3Cl)nc(N3CCSCC3)c2c1 [Example 207, 4-(6-Chloro-2-(2-chlorophenyl)quinazolin-4-yl)thiomorpholine]
EC50 [1, 3]: < 1000 nM
Selectivity, CB2 vs. CB1 [2]: − (− indicates ≦ 10−fold)

CN1CCN(c2nc(-c3ccccc3Cl)nc3ccc(Cl)cc23)CC1 [Example 208, 6-Chloro-2-(2-chlorophenyl)-4-(4-methylpiperazin-1-yl)quinazoline]
EC50 [1, 3]: < 1000 nM
Selectivity, CB2 vs. CB1 [2]: + (+ indicates > 10−fold)

Clc1ccc(-c2nc(N3CCCC3)c3cc(Cl)ccc3n2)cc1 [Example 209, 6-Chloro-2-(4-chlorophenyl)-4-(pyrrolidin-1-yl)quinazoline]
EC50 [1, 3]: > 1000 nM
Selectivity, CB2 vs. CB1 [2]: − (− indicates ≦ 10−fold)

Clc1ccc(-c2nc(N3CCSCC3)c3cc(Cl)ccc3n2)cc1 [Example 211, 4-(6-Chloro-2-(4-chlorophenyl)quinazolin-4-yl)thiomorpholine]
EC50 [1, 3]: > 1000 nM
Selectivity, CB2 vs. CB1 [2]: − (− indicates ≦ 10−fold)

CN1CCN(c2nc(-c3ccc(Cl)cc3)nc3ccc(Cl)cc23)CC1 [Example 212, 6-Chloro-2-(4-chlorophenyl)-4-(4-methylpiperazin-1-yl)quinazoline]
EC50 [1, 3]: > 1000 nM
Selectivity, CB2 vs. CB1 [2]: − (− indicates ≦ 10−fold)

CCOC(=O)N1CCN(c2nc(-c3ccccc3Cl)nc3ccc(OC)cc23)CC1 [Example 217, Ethyl 4-(2-(2-chlorophenyl)-6-methoxyquinazolin-4-yl)piperazine-1-carboxylate]
EC50 [1, 3]: < 1000 nM
Selectivity, CB2 vs. CB1 [2]: + (+ indicates > 10−fold)

CCOC(=O)N1CCN(c2nc(C3CCCCC3)nc3ccc(OC)cc23)CC1 [Example 218, Ethyl 4-(2-cyclohexyl-6-methoxyquinazolin-4-yl)piperazine-1-carboxylate]
EC50 [1, 3]: > 1000 nM
Selectivity, CB2 vs. CB1 [2]: − (− indicates ≦ 10−fold)

CCOC(=O)N1CCN(c2nc(-c3ccccc3Cl)nc3ccc(C(C)(C)C)cc23)CC1 [Example 219, Ethyl 4-(6-tert-butyl-2-(2-chlorophenyl)quinazolin-4-yl)piperazine-1-carboxylate]
EC50 [1, 3]: < 1000 nM
Selectivity, CB2 vs. CB1 [2]: + (+ indicates > 10−fold)

CCOC(=O)N1CCN(c2nc(-c3ccc(F)c(F)c3)nc3ccccc23)CC1 [Example 220, Ethyl 4-(2-(3,4-difluorophenyl)quinazolin-4-yl)piperazine-1-carboxylate]
EC50 [1, 3]: > 1000 nM
Selectivity, CB2 vs. CB1 [2]: − (− indicates ≦ 10−fold)

CCOC(=O)N1CCN(c2nc(C3CCCCC3)nc3ccc(Cl)cc23)CC1 [Example 221, Ethyl 4-(6-chloro-2-cyclohexylquinazolin-4-yl)piperazine-1-carboxylate]
EC50 [1, 3]: < 1000 nM
Selectivity, CB2 vs. CB1 [2]: + (+ indicates > 10−fold)

FC(F)(F)Oc1ccc2nc(-c3ccc(Cl)cc3)nc(N3CCCC3)c2c1 [Example 222, 2-(4-Chlorophenyl)-4-(pyrrolidin-1-yl)-6-(trifluoromethoxy)quinazoline]
EC50 [1, 3]: < 1000 nM
Selectivity, CB2 vs. CB1 [2]: − (− indicates ≦ 10−fold)

CCOC(=O)N1CCN(c2nc(-c3ccc(Cl)cc3)nc3ccc(OC(F)(F)F)cc23)CC1 [Example 223, Ethyl 4-(2-(4-chlorophenyl)-6-(trifluoromethoxy)quinazolin-4-yl)piperazine-1-carboxylate]
EC50 [1, 3]: > 1000 nM
Selectivity, CB2 vs. CB1 [2]: − (− indicates ≦ 10−fold)

FC(F)(F)Oc1ccc2nc(-c3ccc(Cl)cc3)nc(N3CCSCC3)c2c1 [Example 224, 4-(2-(4-Chlorophenyl)-6-(trifluoromethoxy)quinazolin-4-yl)thiomorpholine]
EC50 [1, 3]: > 1000 nM
Selectivity, CB2 vs. CB1 [2]: − (− indicates ≦ 10−fold)

CN1CCN(c2nc(-c3ccc(Cl)cc3)nc3ccc(OC(F)(F)F)cc23)CC1 [Example 225, 2-(4-Chlorophenyl)-4-(4-methylpiperazin-1-yl)-6-(trifluoromethoxy)quinazoline]
EC50 [1, 3]: < 1000 nM
Selectivity, CB2 vs. CB1 [2]: + (+ indicates > 10−fold)

COC(=O)N1CCN(c2nc(-c3ccccc3Cl)nc3ccccc23)CC1 [Example 226, Methyl 4-(2-(2-chlorophenyl)quinazolin-4-yl)piperazine-1-carboxylate]
EC50 [1, 3]: < 1000 nM
Selectivity, CB2 vs. CB1 [2]: + (+ indicates > 10−fold)

Clc1ccccc1-c1nc(N2CCCC2)c2cccc(Cl)c2n1 [Example 227, 8-Chloro-2-(2-chlorophenyl)-4-(pyrrolidin-1-yl)quinazoline]
EC50 [1, 3]: < 1000 nM
Selectivity, CB2 vs. CB1 [2]: − (− indicates ≦ 10−fold)

CN1CCN(c2nc(-c3ccccc3Cl)nc3c(Cl)cccc23)CC1 [Example 228, 8-Chloro-2-(2-chlorophenyl)-4-(4-methylpiperazin-1-yl)quinazoline]
EC50 [1, 3]: > 1000 nM
Selectivity, CB2 vs. CB1 [2]: − (− indicates ≦ 10−fold)

COC(CN(C)c1nc(-c2ccccc2Cl)nc2ccccc12)OC [Example 229, 2-(2-Chlorophenyl)-N-(2,2-dimethoxyethyl)-N-methylquinazolin-4-amine]
EC50 [1, 3]: > 1000 nM
Selectivity, CB2 vs. CB1 [2]: − (− indicates ≦ 10−fold)

CCCOC(=O)N1CCN(c2nc(-c3ccccc3Cl)nc3cccc(Cl)c23)CC1 [Example 231, Propyl 4-(5-chloro-2-(2-chlorophenyl)quinazolin-4-yl)piperazine-1-carboxylate]
EC50 [1, 3]: > 1000 nM
Selectivity, CB2 vs. CB1 [2]: − (− indicates ≦ 10−fold)

CCCC(=O)N1CCN(c2nc(-c3ccccc3Cl)nc3cccc(Cl)c23)CC1 [Example 232, 1-(4-(5-Chloro-2-(2-chlorophenyl)quinazolin-4-yl)piperazin-1-yl)butan-1-one]
EC50 [1, 3]: < 1000 nM
Selectivity, CB2 vs. CB1 [2]: + (+ indicates > 10−fold)

CC(=O)N1CCN(c2nc(-c3ccccc3Cl)nc3cc(Cl)ccc23)CC1 [Example 233, 1-(4-(7-Chloro-2-(2-chlorophenyl)quinazolin-4-yl)piperazin-1-yl)ethanone]
EC50 [1, 3]: < 1000 nM
Selectivity, CB2 vs. CB1 [2]: − (− indicates ≦ 10−fold)

CCOC(=O)N1CCN(c2nc(-c3ccccc3Cl)nc3cc(Cl)ccc23)CC1 [Example 234, Ethyl 4-(7-chloro-2-(2-chlorophenyl)quinazolin-4-yl)piperazine-1-carboxylate]
EC50 [1, 3]: > 1000 nM
Selectivity, CB2 vs. CB1 [2]: − (− indicates ≦ 10−fold)

Clc1ccc2c(N3CCCC3)nc(-c3ccccc3Cl)nc2c1 [Example 235, 7-Chloro-2-(2-chlorophenyl)-4-(pyrrolidin-1-yl)quinazoline]
EC50 ([1]; CB2 Ligand Binding Asssay EC50, competition with [3H] CP-55,940): > 1000 nM
Selectivity, CB2 vs. CB1 [2]: − (− indicates ≦ 10−fold)

Clc1ccccc1-c1nc(N2CCNCC2)c2c(Cl)cccc2n1 [Example 236, 5-Chloro-2-(2-chlorophenyl)-4-(piperazin-1-yl)quinazoline]
EC50 [1, 3]: > 1000 nM
Selectivity, CB2 vs. CB1 [2]: − (− indicates ≦ 10−fold)

— patent US20090209536A1, “AMINOQUINAZOLINE CANNABINOID RECEPTOR MODULATORS FOR TREATMENT OF DISEASE” (KALYPSYS, INC., priority 2007, published 2009)
